Results on 15 compounds are retold here after patent publication US12384808B2, “Modulators of TNF-α activity” (Forward Therapeutics, Inc., priority 2022, dated 2025).

The target of this test is TNFα (Homo sapiens, UniProt P01375). Put plainly: TNFα Induced HEK Blue Cellular Assay. In kind it is cell-based. The following applies: HEK Blue TNFα reporter cells, TNFα 100 pg/ml, 24 hrs at 37° C., secreted alkaline phosphatase (QUANTI-Blue) read at 620 nm; read-out: IC50 value. The procedure: TNFα Induced HEK Blue Cellular Assay
Sequence of TNFα (P01375 77-233 limits assumed): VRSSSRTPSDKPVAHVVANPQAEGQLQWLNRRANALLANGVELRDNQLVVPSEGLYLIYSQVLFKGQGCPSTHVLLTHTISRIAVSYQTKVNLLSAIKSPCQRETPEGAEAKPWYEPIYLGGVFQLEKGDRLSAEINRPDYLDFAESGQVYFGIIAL
Test articles were diluted in DMSO and serially diluted into 384 well assay plate (Corning 3765), at final concentrations ranging from […] to 0.5 nM. HEK Blue™ TNFα reporter cells were added at a final density of 10,000 cell per well in assay media [DMEM (Gibco, cat #21063-029), 10% fetal bovine serum (ExcelBio, cat #FND500), 1% Penicillin-Streptomycin (Solarbio, cat #P1400-100]. TNFα (R&D 210-TA-020/CF) was then added to the assay plate at a final concentration of 100 pg/ml. This plate was then incubated for 24 hrs at 37° C. and 5% CO2. Secreted alkaline phosphatase expression was then measured using QUANTI-Blue™ (Invivogen), according to manufacturer instructions and read on an Envision microplate reader at 620 nm.
Inhibition data for test compound over a range of concentration was plotted as percentage inhibition of the test compound (100%=maximum inhibition). IC50 values were determined after correcting for background [(sample read−mean of low control)/(mean of high control−mean of low control)] where by the low control is DMSO without stimulation and high control is DMSO with stimulation. The IC50 is defined as the concentration of test compound which produces 50% inhibition and was quantified using the 4 parameter logistic equation to fit the data.
Take `[2H]C([2H])([2H])N1C(=O)c2cccc(OC(F)F)c2[C@H]2C[C@@H]1c1nc3ccc(-c4cc(F)c(C(C)P(C)(C)=O)c(F)c4)cc3n12` (single isomer, unassigned) [Example 112, (7R,14R)-1-(difluoromethoxy)-11-(4-((S or R)-1-(dimethylphosphoryl)ethyl)-3,5-difluorophenyl)-6-(methyl-d3)-6,7-dihydro-7,14-methanobenzo[f]benzo[4,5]imidazo[1,2-a][1,4]diazocin-5(14H)-one]: the IC50 is less than 100 nM.
The figure for `[2H]C([2H])([2H])N1C(=O)c2cccc(OC(F)F)c2[C@H]2C[C@@H]1c1nc3ccc(-c4ccc([C@@H](C)P(C)(C)=O)c(F)c4C)cc3n12` (single isomer, unassigned) [Example 113, (7R,14R)-1-(difluoromethoxy)-11-(4-((R or S)-1-(dimethylphosphoryl)ethyl)-3-fluoro-2-methylphenyl)-6-(methyl-d3)-6,7-dihydro-7,14-methanobenzo[f]benzo[4,5]imidazo[1,2-a][1,4]diazocin-5(14H)-one] is less than 100 nM.
Under `[2H]C([2H])([2H])N1C(=O)c2cccc(OC(F)F)c2[C@H]2C[C@@H]1c1nc3ccc(-c4ccc([C@H](C)P(C)(C)=O)c(F)c4C)cc3n12` (single isomer, unassigned) [Example 114, (7R,14R)-1-(difluoromethoxy)-11-(4-((S or R)-1-(dimethylphosphoryl)ethyl)-3-fluoro-2-methylphenyl)-6-(methyl-d3)-6,7-dihydro-7,14-methanobenzo[f]benzo[4,5]imidazo[1,2-a][1,4]diazocin-5(14H)-one] stands less than 100 nM; under `[2H]C([2H])([2H])N1C(=O)c2cccc(OC(F)F)c2[C@H]2C[C@@H]1c1nc3ccc(-c4cc(F)c(C(C)P(C)(C)=O)cc4C)cc3n12` (single isomer, unassigned) [Example 118, (7R,14R)-1-(difluoromethoxy)-11-(4-((R or S)-1-(dimethylphosphoryl)ethyl)-5-fluoro-2-methylphenyl)-6-(methyl-d3)-6,7-dihydro-7,14-methanobenzo[f]benzo[4,5]imidazo[1,2-a][1,4]diazocin-5(14H)-one], less than 100 nM; under `[2H]C([2H])([2H])N1C(=O)c2cccc(OC(F)F)c2[C@H]2C[C@@H]1c1nc3ccc(-c4cc(F)c(C(C)P(C)(C)=O)cc4C)cc3n12` (single isomer, unassigned) [Example 119, (7R,14R)-1-(difluoromethoxy)-11-(4-((S or R)-1-(dimethylphosphoryl)ethyl)-5-fluoro-2-methylphenyl)-6-(methyl-d3)-6,7-dihydro-7,14-methanobenzo[f]benzo[4,5]imidazo[1,2-a][1,4]diazocin-5(14H)-one], less than 100 nM.
Consider `CP(C)(=O)c1ncc(-c2ccc3nc4n(c3c2)[C@@H]2C[C@H]4NC(=O)c3cccc(OC(F)F)c32)cn1` [Example 1, (7R,14R)-1-(difluoromethoxy)-11-(2-(dimethylphosphoryl)pyrimidin-5-yl)-6,7-dihydro-7,14-methanobenzo[f]benzo[4,5]imidazo[1,2-a][1,4]diazocin-5(14H)-one], for which the IC50 was 100 to 1000 nM.
With `CN1C(=O)c2cccc(OC(F)F)c2[C@H]2C[C@@H]1c1nc3ccc(-c4ccc(P(C)(C)=O)nc4)cc3n12` [Example 2, (7R,14R)-1-(difluoromethoxy)-11-(6-(dimethylphosphoryl)pyridin-3-yl)-6-methyl-6,7-dihydro-7,14-methanobenzo[f]benzo[4,5]imidazo[1,2-a][1,4]diazocin-5(14H)-one], the IC50 is less than 100 nM.
The figure for `CP(C)(=O)c1ccc(-c2ccc3nc4n(c3c2)[C@@H]2C[C@H]4NC(=O)c3cccc(OC(F)F)c32)cn1` [Example 3, (7R,14R)-1-(difluoromethoxy)-11-(6-(dimethylphosphoryl)pyridin-3-yl)-6,7-dihydro-7,14-methanobenzo[f]benzo[4,5]imidazo[1,2-a][1,4]diazocin-5(14H)-one] is 100 to 1000 nM; for `CN1C(=O)c2cccc(OC(F)F)c2[C@H]2C[C@@H]1c1nc3ccc(-c4cnc(P(C)(C)=O)c(F)c4)cc3n12` [Example 4, (7R,14R)-1-(difluoromethoxy)-11-(6-(dimethylphosphoryl)-5-fluoropyridin-3-yl)-6-methyl-6,7-dihydro-7,14-methanobenzo[f]benzo[4,5]imidazo[1,2-a][1,4]diazocin-5(14H)-one] it is less than 100 nM.
The figure for `CN1C(=O)c2cccc(OC(F)F)c2[C@H]2C[C@@H]1c1nc3ccc(-c4ccc(P5(=O)CCCC5)nc4)cc3n12` [Example 5, (1R,11R)-18-(difluoromethoxy)-12-methyl-5-[6-(1-oxo-1lambda5-phospholan-1-yl)pyridin-3-yl]-2,9,12-triazapentacyclo[9.8.1.0^{2,10}.0^{3,8}.0^{14,19}]icosa-3(8),4,6,9,14(19),15,17-heptaen-13-one] is less than 100 nM; for `CN1C(=O)c2cccc(OC(F)F)c2[C@H]2C[C@@H]1c1nc3ccc(-c4ccc(P5(=O)CCOCC5)nc4)cc3n12` [Example 6, (1R,11R)-18-(difluoromethoxy)-12-methyl-5-[6-(4-oxo-1,4lambda5-oxaphosphinan-4-yl)pyridin-3-yl]-2,9,12-triazapentacyclo[9.8.1.0^{2,10}.0^{3,8}.0^{14,19}]icosa-3(8),4,6,9,14(19),15,17-heptaen-13-one] it is less than 100 nM; for `CN1C(=O)c2cccc(OC(F)F)c2[C@H]2C[C@@H]1c1nc3ccc(-c4ccc(OCP(C)(C)=O)nc4)cc3n12` [Example 7, (1R,11R)-18-(difluoromethoxy)-5-{6-[(dimethylphosphoryl)methoxy]pyridin-3-yl}-12-methyl-2,9,12-triazapentacyclo[9.8.1.0^{2,10}.0^{3,8}.0^{14,19}]icosa-3(8),4,6,9,14(19),15,17-heptaen-13-one] it is less than 100 nM.
As for `CN1C(=O)c2cccc(OC(F)F)c2[C@H]2C[C@@H]1c1nc3ccc(-c4cnc(P(C)(C)=O)nc4)cc3n12` [Example 8, (1R,11R)-18-(difluoromethoxy)-5-[2-(dimethylphosphoryl)pyrimidin-5-yl]-12-methyl-2,9,12-triazapentacyclo[9.8.1.0^{2,10}.0^{3,8}.0^{14,19}]icosa-3(8),4,6,9,14(19),15,17-heptaen-13-one], the IC50 fell in the range of 100 to 1000 nM.
Regarding `CN1C(=O)c2cccc(OC(F)F)c2[C@H]2C[C@@H]1c1nc3ccc(-c4cnc(OCP(C)(C)=O)nc4)cc3n12` [Example 9, (1R,11R)-18-(difluoromethoxy)-5-{2-[(dimethylphosphoryl)methoxy]pyrimidin-5-yl}-12-methyl-2,9,12-triazapentacyclo[9.8.1.0^{2,10}.0^{3,8}.0^{14,19}]icosa-3(8),4,6,9,14(19),15,17-heptaen-13-one], the IC50 lay within 100 to 1000 nM.
For `CN1C(=O)c2cccc(OC(F)F)c2[C@H]2C[C@@H]1c1nc3ccc(-c4cnc(OCP(C)(C)=O)c(F)c4)cc3n12` [Example 10, (1R,11R)-18-(difluoromethoxy)-5-{6-[(dimethylphosphoryl)methoxy]-5-fluoropyridin-3-yl}-12-methyl-2,9,12-triazapentacyclo [9.8.1.0^{2,10}.0^{3,8}.0^{14,19}]icosa-3(8),4,6,9,14(19),15,17-heptaen-13-one], the IC50 was less than 100 nM.
